How the values were obtained:
Details in all cases: 72 h
Calu-3 [1] = assay: relative viability EC50 (midpoint between 100% and the lowest measured viability); higher = less toxic
Vero E6 [2] = assay: as above
U2OS [3] = assay: as above
HepG2 [4] = assay: as above
Caco-2 [5] = assay: as above
Calu-3 [6] = assay: drug sensitivity score (DSS) for viability; higher = more toxic; extreme values may be limits of the assay
Vero E6 [7] = assay: as above
U2OS [8] = assay: as above
HepG2 [9] = assay: as above
Caco-2 [10] = assay: as above
Calu-3 [11] = assay: cell viability relative to DMSO; higher = less toxic
Vero E6 [12] = assay: as above
U2OS [13] = assay: as above
HepG2 [14] = assay: as above
Caco-2 [15] = assay: as above

| SMILES | relative viability EC50 (Calu-3 [1]) [µM] | relative viability EC50 (Vero E6 [2]) [µM] | relative viability EC50 (U2OS [3]) [µM] | relative viability EC50 (HepG2 [4]) [µM] | relative viability EC50 (Caco-2 [5]) [µM] | drug sensitivity score (Calu-3 [6]) | drug sensitivity score (Vero E6 [7]) | drug sensitivity score (U2OS [8]) | drug sensitivity score (HepG2 [9]) | drug sensitivity score (Caco-2 [10]) | cell viability (Calu-3 [11]; 1 nM) [%] | cell viability (Calu-3 [11]; 10 nM) [%] | cell viability (Calu-3 [11]; 100 nM) [%] | cell viability (Calu-3 [11]; 1000 nM) [%] | cell viability (Calu-3 [11]; 10000 nM) [%] | cell viability (Vero E6 [12]; 1 nM) [%] | cell viability (Vero E6 [12]; 10 nM) [%] | cell viability (Vero E6 [12]; 100 nM) [%] | cell viability (Vero E6 [12]; 1000 nM) [%] | cell viability (Vero E6 [12]; 10000 nM) [%] | cell viability (U2OS [13]; 1 nM) [%] | cell viability (U2OS [13]; 10 nM) [%] | cell viability (U2OS [13]; 100 nM) [%] | cell viability (U2OS [13]; 1000 nM) [%] | cell viability (U2OS [13]; 10000 nM) [%] | cell viability (HepG2 [14]; 1 nM) [%] | cell viability (HepG2 [14]; 10 nM) [%] | cell viability (HepG2 [14]; 100 nM) [%] | cell viability (HepG2 [14]; 1000 nM) [%] | cell viability (HepG2 [14]; 10000 nM) [%] | cell viability (Caco-2 [15]; 1 nM) [%] | cell viability (Caco-2 [15]; 10 nM) [%] | cell viability (Caco-2 [15]; 100 nM) [%] | cell viability (Caco-2 [15]; 1000 nM) [%] | cell viability (Caco-2 [15]; 10000 nM) [%] |
| --- | --- | --- | --- | --- | --- | --- | --- | --- | --- | --- | --- | --- | --- | --- | --- | --- | --- | --- | --- | --- | --- | --- | --- | --- | --- | --- | --- | --- | --- | --- | --- | --- | --- | --- | --- |
| C[C@]12CC[C@H](O)CC1=CC[C@@H]1[C@@H]2CC[C@]2(C)C(c3cccnc3)=CC[C@@H]12 [Abiraterone (CB-7598)] | > 10 | > 10 | > 10 | > 10 | > 10 | 0 | 0 | 0 | 0 | 0 | 96 | 107 | 100 | 98.3 | 100 | 99.9 | 95.2 | 93.9 | 96.4 | 112 | 95.3 | 101 | 95.7 | 103 | 104 | 97.7 | 92.7 | 103 | 95.1 | 103 | 87.1 | 92.3 | 100 | 101 | 98.1 |
| CCCCCCCCCCCCCCCCCCCCCCCCCCCCO [1-octacosanol] | > 10 | > 10 | > 10 | > 10 | > 10 | 0 | 0 | 0 | 0 | 0 | 99.1 | 105 | 102 | 95.5 | 96.1 | 95.5 | 98.5 | 96.7 | 95.6 | 104 | 97.6 | 96.5 | 102 | 96.2 | 96 | 103 | 109 | 97.6 | 116 | 102 | 95.4 | 85.8 | 97 | 91.8 | 95 |
| c1ccc2c(c1)CCC[C@H]2Nc1nc2ccccc2[nH]1 [NS-8593] | > 10 | > 10 | > 10 | > 10 | > 10 | 0 | 0 | 0 | 0.8 | 0 | 96.2 | 96.2 | 94 | 94.3 | 90.1 | 94 | 95.1 | 95.6 | 98.4 | 87.4 | 104 | 98.1 | 96.2 | 100 | 90.1 | 96.8 | 96.8 | 106 | 99.2 | 78.5 | 93.1 | 92.9 | 92.4 | 97.2 | 92.2 |
| CCOC(=O)[N-]c1c[n+](N2CCOCC2)no1 [molsidomine] | > 10 | > 10 | > 10 | > 10 | > 10 | 0.1 | 0 | 0 | 0 | 0 | 95.8 | 88.6 | 91.6 | 91.8 | 89.4 | 92.1 | 99.7 | 95.5 | 96.4 | 109 | 99.3 | 97.6 | 104 | 99.8 | 102 | 87.6 | 95.4 | 97.8 | 106 | 107 | 94.4 | 96.5 | 106 | 95.1 | 104 |
| CN(C)CCN1C(=O)c2cccc3cc(NC(N)=O)cc(c23)C1=O [unbs-5162] | > 10 | > 10 | > 10 | 1.61 | > 10 | 1.5 | 0 | 0 | 5.3 | 0 | 100 | 105 | 95.9 | 88.6 | 78.4 | 108 | 101 | 107 | 95.1 | 90.8 | 104 | 99.7 | 96.4 | 101 | 88 | 100 | 101 | 93.7 | 86.5 | 42.2 | 96.5 | 99.3 | 93.5 | 104 | 96 |
| O=C(Nc1ccc(O)cc1)c1ccccc1O [N-salicoylaminophenol] | > 10 | > 10 | > 10 | > 10 | > 10 | 0 | 0 | 0 | 0 | 0 | 105 | 99.1 | 95.2 | 94.1 | 94.7 | 93.2 | 99.4 | 90.9 | 93.1 | 110 | 96.6 | 98.1 | 95.6 | 97.4 | 93.3 | 90.2 | 106 | 92.1 | 105 | 113 | 94.3 | 96 | 97.4 | 94.7 | 92.7 |
| N[C@@H](CSCCCO)C(=O)O [fudosteine] | > 10 | > 10 | > 10 | > 10 | > 10 | 0 | 0 | 0 | 0 | 0 | 102 | 111 | 107 | 96.8 | 115 | 97.7 | 92.7 | 99.6 | 94.1 | 100 | 96.4 | 101 | 97.2 | 102 | 108 | 93.1 | 83.3 | 96.1 | 88.8 | 105 | 96.1 | 93.9 | 97.3 | 97.2 | 106 |
